One compound from article PMC10394673, “Module walking using an SH3-like cell-wall-binding domain leads to a new GH184 family of muramidases” (Acta Crystallographica. Section D, Structural Biology, 2023) can be followed below.

Test [1] addresses T1, TsCWBD (Trichophaea saccata, UniProt A0AA82WPC9).
T1 construct: isolated N-terminal SH3-like CWBD, residues 1-73 of the 245-residue GH24 muramidase, about 10 kDa, recombinant; no catalytic domain
T1 sequence (A0AA82WPC9 1-73): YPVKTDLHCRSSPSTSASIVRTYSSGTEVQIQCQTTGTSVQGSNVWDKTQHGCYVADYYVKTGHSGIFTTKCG
The test can be described thus: nanoDSF thermal shift. Type of test: binding. Particulars: pH 8.5; Chelex-treated and untreated protein. For orientation: DSF heats the sample and reads unfolding from a dye or from intrinsic fluorescence.

In test [2] the target is T1, TsCWBD. The test can be described thus: X-ray crystal structure, […] A. The test is classed as binding. The conditions noted are these: co-crystallized with 10 mM triglycine, pH 8.5; canonical SH3 specificity zone (Asp6, His8, Arg10); zinc-bridged crystal contact.

Peptide text beside a SMILES is read from it.

Turning to `NCC(=O)NCC(=O)NCC(=O)O` [triglycine] (H-Gly-Gly-Gly-OH), the thermal shift result at TsCWBD [1] is “the thermal shift is present for both treated and untreated samples, implying ligand binding”. Also, the “X-ray crystal structure, 1.18 A” value at TsCWBD [2] was “The triglycine in our structure is bound within the canonical specificity zone”.
